Assay results published in patent US8877814B2, “Titration package for neramexane and its use in the treatment of an inner ear disorder” (Merz Pharma GmbH & Co. KGaA, priority 2007, dated 2014).

Legend:
[1] = test system: subjects with subjective tinnitus of at least moderate severity; test: Double blind placebo controlled pilot trial of neramexane for tinnitus: treatment emergent adverse events leading to drop-out
Method: The primary objective of this study was to compare the efficacy, tolerability and safety of neramexane mesylate at three different dosages (25, 50 or 75 mg/d) with placebo in subjects with subjective tinnitus of at least moderate severity.
In a double-blind, multicenter, randomized, placebo-controlled, parallel-group study, the efficacy of neramexane in subjects suffering from tinnitus of at least moderate severity was assessed. Approximately 100 patients, who fulfilled particular inclusion criteria and met none of particular exclusion criteria, were randomized to each of four double-blind treatment groups (neramexane mesylate 25, 50, 75 mg/d or placebo), resulting in approximately 400 patients in total.
The double-blind, 16-week treatment period consisted of a 4-week uptitration period and a 12-week fixed-dose treatment period at unchanged maintenance b.i.d. dosing. In case of poor tolerability, however, the investigator could consider a dose reduction by 25 mg/d (or placebo, respectively). […] In total, this study involved seven study visits: screening, baseline, and at the end of weeks 4, 8, 12, 16, and 20. (Participants received either neramexane mesylate (e.g. 50 mg, as 25 mg immediate release tablets given twice daily) or placebo twice daily for 16 weeks. Neramexane mesylate was uptitrated in weekly steps of 12.5 or 25 mg during a 4-week uptitration period preceding the fixed-dose 12-week treatment period. Treatment was followed by a four week follow-up period.)
Neramexane mesylate immediate release tablets (12.5 mg and 25 mg) and matching placebo tablets were administered as film coated tablets.
Study medication was dispensed at Visit 2 (baseline, day 0). Each patient received one blister box containing 5 blister cards (including one reserve blister) of double-blind study medication (i.e., 32 tablets). Subjects were instructed to take 2 tablets twice daily (4 tablets/d), beginning the day after dispensing of the study medication, until they returned for their next study visit (Visit 3). For those subjects assigned to receive active medication, some placebo tablets were incorporated into the dosing regimen to ensure blinding during the uptitration period. The target fixed-maintenance dose of 25, 50, or 75 mg/d was administered starting with the fifth week of double-blind treatment and was continued throughout the study. At each of the subsequent visits (Visits 3, 4, and 5, corresponding to end of week 4, 8 and 12) patients received another blister box containing 5 blister cards for the 4 week intervals, with double-blind medication for the intervening treatment period until the next study visit.
In case of poor tolerability the investigator could consider a dose reduction of 25 mg/d by omitting the bigger tablet in the morning which constituted an effective dose reduction only in the 75 mg/d and 50 mg/d neramexane mesylate groups. After omitting the bigger tablet (25 mg or placebo, respectively) of the morning dose, these patients could then continue the course of the study as scheduled, while receiving only one smaller tablet as the morning dose (12.5 mg or placebo, respectively) and 2 tablets of different sizes (12.5 mg, 25 mg or placebo, respectively) as the evening dose. The dose was to be kept stable until the end of the study.

[2] = test system: 5-HT3 receptors; conditions: cited from earlier work
[3] = test system: patients afflicted with various degrees of hearing loss; test: Double blind placebo controlled pilot trial of neramexane for treatment of hearing loss; type: in vivo, human; conditions: neramexane mesylate up to 75 mg/d, compared to the placebo group
Method: A hearing threshold level may be defined as the average of the pure tone hearing threshold levels at testing frequencies of 0.25, 0.5, 1, 2 and 4 kHz.
The primary objective of this study is to investigate the safety and efficacy of neramexane mesylate at daily doses of up to 75 mg in the treatment of hearing loss in comparison to placebo.
Neramexane mesylate (or placebo) is uptitrated to a maximum daily dose of 75 mg, starting with a daily dose of 25 mg for one week, and increasing dosage in 25 mg steps at weekly intervals.
Treatment is started in the evening of study day 1. The daily starting dose is 25 mg neramexane mesylate per dose to be taken for 7 days at bedtime. […]
Primary Outcome • Change from baseline in hearing threshold level of left/right ear (dB) calculated as average of the pure tone hearing level threshold levels at 0.25, 0.5, 1, 2 and 4 kHz.
Secondary Outcomes • Change from baseline in high frequency hearing threshold of left/right ear (dB) calculated as average of the pure tone hearing threshold levels at 4, 6, 8 and 10 kHz • Change from baseline in individual frequencies (hearing thresholds) on a pure tone audiogram (air conduction) • Number of Responder • Patient-reported outcome on a 11-point Likert-Scale (0=hearing is not a problem, 10=hearing is a problem as much as possible) • Change in hearing impairment based on the hearing threshold level: […]

[4] = target: α 9/α 10 nicotinic (Rattus norvegicus, UniProt P43144+Q9JLB5); conditions: Plazas et al., Eur J. Pharmacol. 2007; cited from earlier work
Chain of α 9/α 10 nicotinic (P43144 26-479): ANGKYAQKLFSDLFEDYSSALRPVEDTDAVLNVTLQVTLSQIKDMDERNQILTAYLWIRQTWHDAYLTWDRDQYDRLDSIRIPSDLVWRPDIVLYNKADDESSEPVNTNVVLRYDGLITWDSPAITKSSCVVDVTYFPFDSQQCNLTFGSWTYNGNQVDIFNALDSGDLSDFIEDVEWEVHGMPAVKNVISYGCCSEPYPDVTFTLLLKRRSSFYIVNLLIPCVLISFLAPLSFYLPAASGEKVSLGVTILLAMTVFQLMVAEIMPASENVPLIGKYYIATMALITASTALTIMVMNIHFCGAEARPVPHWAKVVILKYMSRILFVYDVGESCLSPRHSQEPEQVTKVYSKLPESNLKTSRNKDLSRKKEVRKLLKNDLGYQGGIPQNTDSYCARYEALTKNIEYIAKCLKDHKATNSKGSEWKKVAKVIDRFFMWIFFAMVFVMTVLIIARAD
Chain of α 9/α 10 nicotinic (Q9JLB5 25-447): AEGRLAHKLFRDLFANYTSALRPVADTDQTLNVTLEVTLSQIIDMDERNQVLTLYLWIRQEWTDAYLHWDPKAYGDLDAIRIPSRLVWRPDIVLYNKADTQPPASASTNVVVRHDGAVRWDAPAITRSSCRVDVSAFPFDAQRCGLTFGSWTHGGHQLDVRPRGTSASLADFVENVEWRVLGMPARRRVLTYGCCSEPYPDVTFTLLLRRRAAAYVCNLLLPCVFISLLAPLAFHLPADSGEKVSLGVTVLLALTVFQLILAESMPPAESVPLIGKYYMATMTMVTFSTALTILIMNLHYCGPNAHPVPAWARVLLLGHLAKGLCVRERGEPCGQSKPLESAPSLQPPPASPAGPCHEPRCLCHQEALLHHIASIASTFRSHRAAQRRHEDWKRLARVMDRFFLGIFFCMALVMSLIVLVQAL

CC1(C)CC(C)(C)CC(C)(N)C1 [Neramexane, 1-amino-1,3,3,5,5-pentamethylcyclohexane]
1: Depression leading to drop-out, n (number of patients) ([1]; 25 mg/d, N = 108, EFS) | Headache leading to drop-out, n (number of patients) ([1]; 50 mg/d, N = 107, EFS) | Tinnitus leading to drop-out, n (number of patients) ([1]; 75 mg/d, N = 102, EFS)
(14.7) %: Dizziness leading to drop-out, % of patients ([1]; 75 mg/d, N = 102, EFS)
(28.4) %: Any adverse event leading to drop-out, % of patients ([1]; 75 mg/d, N = 102, EFS)
(8.3) %: Any adverse event leading to drop-out, % of patients ([1]; 25 mg/d, N = 108, EFS)
(2.9) %: Vertigo leading to drop-out, % of patients ([1]; 75 mg/d, N = 102, EFS)
improvement: Primary outcome: change from baseline in hearing threshold level [3] | Secondary outcomes (e.g. change from baseline in different frequencies on a pure tone audiogram) [3]
3: Vertigo leading to drop-out, n (number of patients) ([1]; 75 mg/d, N = 102, EFS)
9: Any adverse event leading to drop-out, n (number of patients) ([1]; 25 mg/d, N = 108, EFS)
4: Vertigo leading to drop-out, n (number of patients) ([1]; 50 mg/d, N = 107, EFS)
29: Any adverse event leading to drop-out, n (number of patients) ([1]; 75 mg/d, N = 102, EFS)
exhibit activity: activity at 5-HT3 receptors [2] | activity at the α 9/α 10 nicotinic receptors [4]
(21.5) %: Any adverse event leading to drop-out, % of patients ([1]; 50 mg/d, N = 107, EFS)
23: Any adverse event leading to drop-out, n (number of patients) ([1]; 50 mg/d, N = 107, EFS)
(2.0) %: Fatigue leading to drop-out, % of patients ([1]; 75 mg/d, N = 102, EFS) | Headache leading to drop-out, % of patients ([1]; 75 mg/d, N = 102, EFS) | Hyperhidrosis leading to drop-out, % of patients ([1]; 75 mg/d, N = 102, EFS) | Nausea leading to drop-out, % of patients ([1]; 75 mg/d, N = 102, EFS) | Visual acuity reduced leading to drop-out, % of patients ([1]; 75 mg/d, N = 102, EFS)
15: Dizziness leading to drop-out, n (number of patients) ([1]; 75 mg/d, N = 102, EFS)
(1.9) %: Dizziness leading to drop-out, % of patients ([1]; 25 mg/d, N = 108, EFS) | Tinnitus leading to drop-out, % of patients ([1]; 25 mg/d, N = 108, EFS) | Cardiovascular disorder leading to drop-out, % of patients ([1]; 50 mg/d, N = 107, EFS) | Depression leading to drop-out, % of patients ([1]; 50 mg/d, N = 107, EFS) | Fatigue leading to drop-out, % of patients ([1]; 50 mg/d, N = 107, EFS) | Nausea leading to drop-out, % of patients ([1]; 50 mg/d, N = 107, EFS) | Paresthesia leading to drop-out, % of patients ([1]; 50 mg/d, N = 107, EFS)
6: Dizziness leading to drop-out, n (number of patients) ([1]; 50 mg/d, N = 107, EFS)
0: Cardiovascular disorder leading to drop-out, n (number of patients) ([1]; 25 mg/d, N = 108, EFS) | Fatigue leading to drop-out, n (number of patients) ([1]; 25 mg/d, N = 108, EFS) | Headache leading to drop-out, n (number of patients) ([1]; 25 mg/d, N = 108, EFS) | Hyperhidrosis leading to drop-out, n (number of patients) ([1]; 25 mg/d, N = 108, EFS) | Nausea leading to drop-out, n (number of patients) ([1]; 25 mg/d, N = 108, EFS) | Paresthesia leading to drop-out, n (number of patients) ([1]; 25 mg/d, N = 108, EFS) | Vertigo leading to drop-out, n (number of patients) ([1]; 25 mg/d, N = 108, EFS) | Visual acuity reduced leading to drop-out, n (number of patients) ([1]; 25 mg/d, N = 108, EFS) | Hyperhidrosis leading to drop-out, n (number of patients) ([1]; 50 mg/d, N = 107, EFS) | Tinnitus leading to drop-out, n (number of patients) ([1]; 50 mg/d, N = 107, EFS) | Visual acuity reduced leading to drop-out, n (number of patients) ([1]; 50 mg/d, N = 107, EFS) | Cardiovascular disorder leading to drop-out, n (number of patients) ([1]; 75 mg/d, N = 102, EFS) | Depression leading to drop-out, n (number of patients) ([1]; 75 mg/d, N = 102, EFS) | Paresthesia leading to drop-out, n (number of patients) ([1]; 75 mg/d, N = 102, EFS)
(0.9) %: Depression leading to drop-out, % of patients ([1]; 25 mg/d, N = 108, EFS) | Headache leading to drop-out, % of patients ([1]; 50 mg/d, N = 107, EFS)
2: Dizziness leading to drop-out, n (number of patients) ([1]; 25 mg/d, N = 108, EFS) | Tinnitus leading to drop-out, n (number of patients) ([1]; 25 mg/d, N = 108, EFS) | Cardiovascular disorder leading to drop-out, n (number of patients) ([1]; 50 mg/d, N = 107, EFS) | Depression leading to drop-out, n (number of patients) ([1]; 50 mg/d, N = 107, EFS) | Fatigue leading to drop-out, n (number of patients) ([1]; 50 mg/d, N = 107, EFS) | Nausea leading to drop-out, n (number of patients) ([1]; 50 mg/d, N = 107, EFS) | Paresthesia leading to drop-out, n (number of patients) ([1]; 50 mg/d, N = 107, EFS) | Fatigue leading to drop-out, n (number of patients) ([1]; 75 mg/d, N = 102, EFS) | Headache leading to drop-out, n (number of patients) ([1]; 75 mg/d, N = 102, EFS) | Hyperhidrosis leading to drop-out, n (number of patients) ([1]; 75 mg/d, N = 102, EFS) | Nausea leading to drop-out, n (number of patients) ([1]; 75 mg/d, N = 102, EFS) | Visual acuity reduced leading to drop-out, n (number of patients) ([1]; 75 mg/d, N = 102, EFS)
(0.0) %: Cardiovascular disorder leading to drop-out, % of patients ([1]; 25 mg/d, N = 108, EFS) | Fatigue leading to drop-out, % of patients ([1]; 25 mg/d, N = 108, EFS) | Headache leading to drop-out, % of patients ([1]; 25 mg/d, N = 108, EFS) | Hyperhidrosis leading to drop-out, % of patients ([1]; 25 mg/d, N = 108, EFS) | Nausea leading to drop-out, % of patients ([1]; 25 mg/d, N = 108, EFS) | Paresthesia leading to drop-out, % of patients ([1]; 25 mg/d, N = 108, EFS) | Vertigo leading to drop-out, % of patients ([1]; 25 mg/d, N = 108, EFS) | Visual acuity reduced leading to drop-out, % of patients ([1]; 25 mg/d, N = 108, EFS) | Hyperhidrosis leading to drop-out, % of patients ([1]; 50 mg/d, N = 107, EFS) | Tinnitus leading to drop-out, % of patients ([1]; 50 mg/d, N = 107, EFS) | Visual acuity reduced leading to drop-out, % of patients ([1]; 50 mg/d, N = 107, EFS) | Cardiovascular disorder leading to drop-out, % of patients ([1]; 75 mg/d, N = 102, EFS) | Depression leading to drop-out, % of patients ([1]; 75 mg/d, N = 102, EFS) | Paresthesia leading to drop-out, % of patients ([1]; 75 mg/d, N = 102, EFS)
(3.7) %: Vertigo leading to drop-out, % of patients ([1]; 50 mg/d, N = 107, EFS)
(1.0) %: Tinnitus leading to drop-out, % of patients ([1]; 75 mg/d, N = 102, EFS)
(5.6) %: Dizziness leading to drop-out, % of patients ([1]; 50 mg/d, N = 107, EFS)
